According to US9944678B2, “Immunomodulators” (BRISTOL-MYERS SQUIBB COMPANY, priority 2014, dated 2018):
Positions of bridges follow the written chain, without caps; N, C: chain ends. Non-standard residues stand in square brackets, D forms with d. Residues, ends and D or L forms follow the SMILES beside them. ξ: configuration not given here. Bta = N[C@@H](Cc1csc2ccccc12)C(=O)O; Hyp = O=C(O)[C@@H]1C[C@@H](O)CN1; NMeNle = CCCC[C@H](NC)C(=O)O; NMeA = CN[C@@H](C)C(=O)O; Ac5c = NC1(C(=O)O)CCCC1; Dab = NCC[C@H](N)C(=O)O; Dap = NC[C@H](N)C(=O)O; Ac3c = NC1(C(=O)O)CC1; Aib = CC(C)(N)C(=O)O; ξC = NC(CS)C(=O)O

Legend:
[1] = oral formulation ENTOCORT EC, extensive first-pass metabolism; cited from earlier work
[2] = biological target: T1, PD-1-Ig binding to PD-L1-TVMV-His (PD-L1-His) (Homo sapiens, UniProt Q9NZQ7); assay: PD-1/PD-L1 Homogenous Time-Resolved Fluorescence (HTRF) binding assay; conditions: PD-1-Ig/PD-L1-His binding
T1 construct: hPDL1(19-239)-TVMV-His; TVMV protease cleavage site (C); made in house; host or cells: HEK293T cells
Source text: The ability of the macrocyclic peptides of the present disclosure to bind to PD-L1 was investigated using a PD-1/PD-L1 Homogenous Time-Resolved Fluorescence (HTRF) binding assay.
Homogenous Time-Resolved Fluorescence (HTRF) Assays of Binding of Soluble PD-1 to Soluble PD-L1. Soluble PD-1 and soluble PD-L1 refers to proteins with carboxyl-end truncations that remove the transmembrane-spanning regions and are fused to heterologous sequences, specifically the Fc portion of the human immunoglobuling G sequence (Ig) or the hexahistidine epitope tag (His). All binding studies were performed in an HTRF assay buffer consisting of dPBS supplemented with 0.1% (w/v) bovine serum albumin and 0.05% (v/v) Tween-20. For the PD-1-Ig/PD-L1-His binding assay, inhibitors were pre-incubated with PD-L1-His (10 nM final) for 15 m in 4 μl of assay buffer, followed by addition of PD-1-Ig (20 nM final) in 1 μl of assay buffer and further incubation for 15 m. PD-L1 fusion proteins from either human, cynomologous macaques, mouse, or other species were used. HTRF detection was achieved using europium crypate-labeled anti-Ig monoclonal antibody (1 nM final) and allophycocyanin (APC) labeled anti-His monoclonal antibody (20 nM final). Antibodies were diluted in HTRF detection buffer and 5 μl was dispensed on top of binding reaction. The reaction was allowed to equilibrate for 30 minutes and signal (665 nm/620 nm ratio) was obtained using an EnVision fluorometer. Additional binding assays were established between PD-1-Ig/PD-L2-His (20 and 5 nM, respectively), CD80-His/PD-L1-Ig (100 and 10 nM, respectively) and CD80-His/CTLA4-Ig (10 and 5 nM, respectively). Binding/competition studies between biotinylated Compound No. 71 and human PD-L1-His were performed as follows. Macrocyclic peptide inhibitors were pre-incubated with PD-L1-His (10 nM final) for 60 minutes in 4 μl of assay buffer followed by addition of biotinylated Compound No. 71 (0.5 nM final) in 1 μl of assay buffer. Binding was allowed to equilibrate for 30 minutes followed by addition of europium crypated labeled Streptavidin (2.5 pM final) and APC-labeled anti-His (20 nM final) in 5 μl of HTRF buffer. The reaction was allowed to equilibrate for 30 m and signal (665 nm/620 nm ratio) was obtained using an EnVision fluorometer.
Recombinant Proteins. Carboxyl-truncated human PD-1 (amino acids 25-167) with a C-terminal human Ig epitope tag [hPD-1 (25-167)-3S-IG] and human PD-L1 (amino acids 18-239) with a C-terminal His epitope tag [hPD-L1(19-239)-tobacco vein mottling virus protease cleavage site (TVMV)-His] were expressed in HEK293T cells and purified sequentially by recombinant Protein A affinity chromatography and size exclusion chromatography. Human PD-L2-His (Sino Biologicals), CD80-His (Sino Biologicals), CTLA4-Ig (RnD Systems) were all obtained through commercial sources.
Ranges are as follows: A=0.10-10 μM; B=0.01-0.099 μM; C=0.004-0.0099 μM.

T1 sequence (Q9NZQ7 with tags, fused parts or gaps): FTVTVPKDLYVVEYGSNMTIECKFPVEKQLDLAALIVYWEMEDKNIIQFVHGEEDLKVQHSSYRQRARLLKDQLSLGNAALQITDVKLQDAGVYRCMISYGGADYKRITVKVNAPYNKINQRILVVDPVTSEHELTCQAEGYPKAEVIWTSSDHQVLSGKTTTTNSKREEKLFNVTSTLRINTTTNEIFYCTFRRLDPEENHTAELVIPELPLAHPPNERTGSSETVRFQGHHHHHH

Structure (SMILES) | IC50 ([2]; values given as range classes) | IC50 ([2]; numeric values) | further results
CCCC1O[C@@H]2C[C@H]3[C@@H]4CCC5=CC(=O)C=C[C@]5(C)[C@H]4[C@@H](O)C[C@]3(C)[C@]2(C(=O)CO)O1 (stereo partly drawn) [budesonide] | – | – | bioavailability [1]: about 10%
CCCC[C@H]1C(=O)N(C)[C@@H](CCCC)C(=O)N[C@@H](CC(C)C)C(=O)N[C@H](C(=O)NCC(N)=O)CSCC(=O)N[C@@H](Cc2ccc(O)cc2)C(=O)N(C)[C@@H](C)C(=O)NC2(CC2)C(=O)N2CCC[C@H]2C(=O)N[C@@H](CN)C(=O)N[C@@H](CC(C)C)C(=O)N2C[C@H](O)C[C@H]2C(=O)N[C@@H](Cc2c[nH]c3ccccc23)C(=O)N[C@@H](CCN)C(=O)N[C@@H](Cc2c[nH]c3ccccc23)C(=O)N1C [Example 9014] ({CH2CO}-Y[NMeA][Ac3c]P[Dap]L[Hyp]W[Dab]W[NMeNle][NMeNle]LCG-NH2; thioether N-14) | 100 to 10000 nM | – | –
CCCC[C@H]1C(=O)N(C)[C@@H](CCCC)C(=O)NC2(CCCC2)C(=O)N[C@H](C(=O)NCC(N)=O)CSCC(=O)N[C@@H](Cc2ccc(O)cc2)C(=O)N(C)[C@@H](C)C(=O)N[C@@H](CC(N)=O)C(=O)N2CCC[C@H]2C(=O)N[C@@H](CN)C(=O)N[C@@H](CC(C)C)C(=O)N2C[C@H](O)C[C@H]2C(=O)N[C@@H](Cc2c[nH]c3ccccc23)C(=O)N[C@@H](CCN)C(=O)N[C@@H](Cc2c[nH]c3ccccc23)C(=O)N1C [Example 9015] ({CH2CO}-Y[NMeA]NP[Dap]L[Hyp]W[Dab]W[NMeNle][NMeNle][Ac5c]CG-NH2; thioether N-14) | 10 to 99 nM | – | –

More lines, main results first:

IC50 ([2]; values given as range classes) | IC50 ([2]; numeric values) | Structure (SMILES) | further results
– | 40 nM | CCCC[C@H]1C(=O)N(C)[C@@H](CCCC)C(=O)NC2(CC2)C(=O)N[C@H](C(=O)NCC(N)=O)CSCC(=O)N[C@@H](Cc2ccc(O)cc2)C(=O)N(C)[C@@H](C)C(=O)N[C@@H](CC(N)=O)C(=O)N2CCC[C@H]2C(=O)N[C@@H](CN)C(=O)N[C@@H](CC(C)C)C(=O)N2C[C@H](O)C[C@H]2C(=O)N[C@@H](Cc2c[nH]c3ccccc23)C(=O)N[C@@H](CCN)C(=O)N[C@@H](Cc2c[nH]c3ccccc23)C(=O)N1C [Example 9006] ({CH2CO}-Y[NMeA]NP[Dap]L[Hyp]W[Dab]W[NMeNle][NMeNle][Ac3c]CG-NH2; thioether N-14) | –
– | 4.13 nM | CCCC[C@H]1C(=O)N(C)[C@@H](CCCC)C(=O)N[C@@H](CCCNC(=N)N)C(=O)NC(C(=O)NCC(N)=O)CSCC(=O)N[C@@H](Cc2ccc(O)cc2)C(=O)NC2(CC2)C(=O)N[C@@H](CC(N)=O)C(=O)N2CCC[C@H]2C(=O)N[C@@H](Cc2c[nH]cn2)C(=O)N[C@@H](CC(C)C)C(=O)N2C[C@H](O)C[C@H]2C(=O)N[C@@H](Cc2c[nH]c3ccccc23)C(=O)N[C@@H](CO)C(=O)N[C@@H](Cc2c[nH]c3ccccc23)C(=O)N1C (stereo partly drawn) [Example 9002] | –
10 to 99 nM | – | CCCC[C@H]1C(=O)N(C)[C@@H](CCCC)C(=O)N[C@@H](CCCNC(=N)N)C(=O)NC(C(=O)NCC(N)=O)CSCC(=O)N[C@@H](Cc2ccc(O)cc2)C(=O)NC(C)(C)C(=O)N[C@@H](CC(N)=O)C(=O)N2CCC[C@H]2C(=O)N[C@@H](Cc2c[nH]cn2)C(=O)N[C@@H](CC(C)C)C(=O)N2C[C@H](O)C[C@H]2C(=O)N[C@@H](Cc2c[nH]c3ccccc23)C(=O)N[C@@H](CO)C(=O)N[C@@H](Cc2csc3ccccc23)C(=O)N1C (stereo partly drawn) [Example 9003] ({CH2CO}-Y[Aib]NPHL[Hyp]WS[Bta][NMeNle][NMeNle]R[ξC]G-NH2; thioether N-14) | –
